Experimental data published in paper PMC4494771, “Synthesis, structure, and biological activity of novel heterocyclic sulfonyl-carboximidamides” (Monatshefte Fur Chemie, 2013).

Assays:
[1] = tested on: neonatal human dermal fibroblasts (ATCC PCS-201-010); test: Cytotoxic activity, fibroblast proliferation (sulforhodamine B); assay type: cell-based
Protocol: Passage for normal neonatal human dermal fibroblasts (ATCC PCS-201-010, lot 58243223) were grown in DMEM with 5 % calf serum (Hyclone). For the experiment, cells were plated in DMEM/5 % serum at 2,000 cells/well in 96 well plates (plate 598) and were exposed to test materials for 96 h. MAP and bFGF were used as the positive controls and water, 1, 0.5, and 0.25 % DMSO were used as the negative controls. Plate growth was stopped and cells were stained with a sulforhodamine B dye. The dye was then dissolved and a colorimetric signal proportional to total cell/protein count was quantified with the BioRad microplate spectrophotometer 3550-UV at 570 nm with background subtraction at 660 nm and analyzed with Microplate Manager v.2 software for Macintosh (BioRad). Error bars represent standard errors of the mean (SEM). P values representing statistical significance were calculated using the t test.

[2] = tested on: leukemia cell lines; test: NCI-60 DTP human tumor cell line screening, leukemia panel; assay type: cell-based; details: mean for leukemia cell line panel, read-out: GI 50 mean value
[3] = tested on: CCRF-CEM; test: NCI-60 DTP human tumor cell line screening; assay type: cell-based; details: Leukemia CCRF-CEM
[4] = tested on: HL-60 (TB); test: NCI-60 DTP human tumor cell line screening; assay type: cell-based
[5] = tested on: K-562; test: NCI-60 DTP human tumor cell line screening; assay type: cell-based
[6] = tested on: A549/ATCC; test: NCI-60 DTP human tumor cell line screening; assay type: cell-based; details: Non-small cell lung cancer A549/ATCC
[7] = tested on: HOP-62; test: NCI-60 DTP human tumor cell line screening; assay type: cell-based; details: Non-small cell lung cancer HOP-62
[8] = tested on: NCI-H226; test: NCI-60 DTP human tumor cell line screening; assay type: cell-based; details: Non-small cell lung cancer NCI-H226
[9] = tested on: COLO 205; test: NCI-60 DTP human tumor cell line screening; assay type: cell-based; details: Colon cancer COLO 205
[10] = tested on: HCC-2998; test: NCI-60 DTP human tumor cell line screening; assay type: cell-based; details: Colon cancer HCC-2998
[11] = tested on: KM12; test: NCI-60 DTP human tumor cell line screening; assay type: cell-based
[12] = tested on: SW-620; test: NCI-60 DTP human tumor cell line screening; assay type: cell-based
[13] = tested on: SF-295; test: NCI-60 DTP human tumor cell line screening; assay type: cell-based; details: CNS cancer SF-295
[14] = tested on: SF-539; test: NCI-60 DTP human tumor cell line screening; assay type: cell-based; details: CNS cancer SF-539
[15] = tested on: SNB-19; test: NCI-60 DTP human tumor cell line screening; assay type: cell-based; details: CNS cancer SNB-19
[16] = tested on: SNB-75; test: NCI-60 DTP human tumor cell line screening; assay type: cell-based; details: CNS cancer SNB-75
[17] = tested on: U251; test: NCI-60 DTP human tumor cell line screening; assay type: cell-based; details: CNS cancer U251
[18] = tested on: M-14; test: NCI-60 DTP human tumor cell line screening; assay type: cell-based; details: Melanoma M-14
[19] = tested on: MDA-MB-435; test: NCI-60 DTP human tumor cell line screening; assay type: cell-based
[20] = tested on: UACC-62; test: NCI-60 DTP human tumor cell line screening; assay type: cell-based; details: Melanoma UACC-62
[21] = tested on: IGROV1; test: NCI-60 DTP human tumor cell line screening; assay type: cell-based; details: Ovarian cancer IGROV1
[22] = tested on: OVCAR-3; test: NCI-60 DTP human tumor cell line screening; assay type: cell-based; details: Ovarian cancer OVCAR-3
[23] = tested on: OVCAR-4; test: NCI-60 DTP human tumor cell line screening; assay type: cell-based; details: Ovarian cancer OVCAR-4
[24] = tested on: OVCAR-5; test: NCI-60 DTP human tumor cell line screening; assay type: cell-based; details: Ovarian cancer OVCAR-5
[25] = tested on: OVCAR-8; test: NCI-60 DTP human tumor cell line screening; assay type: cell-based; details: Ovarian cancer OVCAR-8
[26] = tested on: SK-OV-3; test: NCI-60 DTP human tumor cell line screening; assay type: cell-based; details: Ovarian cancer SK-OV-3
[27] = tested on: ACHN; test: NCI-60 DTP human tumor cell line screening; assay type: cell-based; details: Renal cancer ACHN
[28] = tested on: RXF 393; test: NCI-60 DTP human tumor cell line screening; assay type: cell-based; details: Renal cancer RXF 393
[29] = tested on: MDA-MB-231/ATCC; test: NCI-60 DTP human tumor cell line screening; assay type: cell-based; details: Breast cancer MDA-MB-231/ATCC
[30] = tested on: HS 578T; test: NCI-60 DTP human tumor cell line screening; assay type: cell-based; details: Breast cancer HS 578T
[31] = tested on: T-47D; test: NCI-60 DTP human tumor cell line screening; assay type: cell-based; details: Breast cancer T-47D
[32] = tested on: panel of 60 human tumor cell lines; test: NCI-60 DTP human tumor cell line screening, whole panel

Structure (SMILES): NC(=NS(=O)(=O)c1ccccc1Cl)c1ccc2ccccc2n1 [Compound 15, N′-(2-Chlorophenylsulfonyl)quinoline-2-carboximidamide]
- growth inhibitory activity ([1]; 6.25 μg/cm^3): 70%
- cytotoxic activity on fibroblast proliferation ([1]; 96 h, 6.25–100 μg/cm^3): strongly cytotoxic
- GI50 [2]: 3.52 µM
- GI50 ([3]; Homo sapiens): 3.65 µM
- TGI [3]: ^c (Determined TGI values were >100 μM)
- inhibition at 10 µM ([4]; Homo sapiens, HL-60, read-out: Growth inhibition ΔGI): 19.7%
- GI50 ([4]; Homo sapiens, Leukemia HL-60 (TB)): 2.29 µM
- TGI ([4]; Leukemia HL-60 (TB)): 8.41 µM
- inhibition at 10 µM ([5]; Homo sapiens, K562, read-out: Growth inhibition ΔGI): 35.9%
- GI50 ([5]; Homo sapiens, K562, Leukemia K-562): 3.11 µM
- TGI ([5]; Leukemia K-562): ^c (Determined TGI values were >100 μM)
- GI50 ([6]; Homo sapiens): 5.37 µM
- TGI [6]: ^c (Determined TGI values were >100 μM)
- GI50 ([7]; Homo sapiens): 5.37 µM
- TGI [7]: ^c (Determined TGI values were >100 μM)
- GI50 ([8]; Homo sapiens): 10.8 µM
- TGI [8]: ^c (Determined TGI values were >100 μM)
- TGI [9]: 16.00 µM
- GI50 ([9]; Homo sapiens): 3.68 µM
- TGI [10]: 59.40 µM
- GI50 ([10]; Homo sapiens): 9.63 µM
- TGI ([11]; Colon cancer KM12): ^c (Determined TGI values were >100 μM)
- inhibition at 10 µM ([11]; Homo sapiens, KM12, read-out: Growth inhibition ΔGI): 23%
- GI50 ([11]; Homo sapiens, Colon cancer KM12): 3.29 µM
- TGI ([12]; Colon cancer SW-620): ^c (Determined TGI values were >100 μM)
- inhibition at 10 µM ([12]; Homo sapiens, SW-620, read-out: Growth inhibition ΔGI): 24.7%
- GI50 ([12]; Homo sapiens, Colon cancer SW-620): 3.45 µM
- TGI [13]: 86.30 µM
- GI50 ([13]; Homo sapiens): 3.83 µM
- TGI [14]: ^c (Determined TGI values were >100 μM)
- GI50 ([14]; Homo sapiens): 4.19 µM
- TGI [15]: ^c (Determined TGI values were >100 μM)
- GI50 ([15]; Homo sapiens): 5.61 µM
- TGI [16]: 30.60 µM
- GI50 ([16]; Homo sapiens): 2.52 µM
- TGI [17]: ^c (Determined TGI values were >100 μM)
- GI50 ([17]; Homo sapiens, U-251): 4.48 µM
- GI50 ([18]; Homo sapiens, M14): 3.61 µM
- TGI [18]: ^c (Determined TGI values were >100 μM)
- inhibition at 10 µM ([19]; Homo sapiens, MDA-MB-435, read-out: Growth inhibition ΔGI): 80.4%
- GI50 ([19]; Homo sapiens, Melanoma MDA-MB-435): 1.13 µM
- TGI ([19]; Melanoma MDA-MB-435): 3.78 µM
- GI50 ([20]; Homo sapiens): 6.07 µM
- TGI [20]: ^c (Determined TGI values were >100 μM)
- GI50 ([21]; Homo sapiens, IGROV-1): 9.42 µM
- TGI [21]: ^c (Determined TGI values were >100 μM)
- GI50 [22]: 9.27 µM
- GI50 ([23]; Homo sapiens): 9.15 µM
- TGI [23]: 9.53 µM
- GI50 ([24]; Homo sapiens): 7.71 µM
- TGI [24]: ^c (Determined TGI values were >100 μM)
- GI50 ([25]; Homo sapiens): 5.74 µM
- TGI [25]: 12.00 µM
- GI50 ([26]; Homo sapiens): 3.93 µM
- TGI [26]: ^c (Determined TGI values were >100 μM)
- GI50 ([27]; Homo sapiens): 7.19 µM
- TGI [27]: 13.10 µM
- GI50 ([28]; Homo sapiens): 4.02 µM
- TGI [28]: 35.90 µM
- TGI [29]: ^c (Determined TGI values were >100 μM)
- GI50 ([29]; Homo sapiens): 13 µM
- TGI [30]: ^c (Determined TGI values were >100 μM)
- GI50 ([30]; Homo sapiens): 8.98 µM
- TGI [31]: ^c (Determined TGI values were >100 μM)
- GI50 ([31]; Homo sapiens, T47D): 7.04 µM
- Growth percent mean values (MG_MID) ([32]; 10 μM, mean of growth percent for all tested cell lines): 53.4%
- GI50 ([32]; Homo sapiens): 0.92 to 13 µM
- CC50 ([32]; Homo sapiens, SK-MEL-5, read-out: LC 50): > 100 µM
